Laboratory results taken from ChEMBL document CHEMBL6096703 (J Med Chem, 2025).
Blank lines part the entries; values can stand above or below the molecule they belong to. Activity calls are given as the source filed them. The rule behind the calls is not given here.

Key:
[1] = biological target: T1, Poly [ADP-ribose] polymerase 2 (Homo sapiens, UniProt Q9UGN5); assay: Inhibition of PARP2 (unknown origin) at 1 uM preincubated with compound for 10 mins followed by DNA and NAD+ addition and measured after 60 mins by chemiluminescence based envision reader analysis relative to control; conditions: time 70.0 min
T1 sequence (Q9UGN5 whole entry): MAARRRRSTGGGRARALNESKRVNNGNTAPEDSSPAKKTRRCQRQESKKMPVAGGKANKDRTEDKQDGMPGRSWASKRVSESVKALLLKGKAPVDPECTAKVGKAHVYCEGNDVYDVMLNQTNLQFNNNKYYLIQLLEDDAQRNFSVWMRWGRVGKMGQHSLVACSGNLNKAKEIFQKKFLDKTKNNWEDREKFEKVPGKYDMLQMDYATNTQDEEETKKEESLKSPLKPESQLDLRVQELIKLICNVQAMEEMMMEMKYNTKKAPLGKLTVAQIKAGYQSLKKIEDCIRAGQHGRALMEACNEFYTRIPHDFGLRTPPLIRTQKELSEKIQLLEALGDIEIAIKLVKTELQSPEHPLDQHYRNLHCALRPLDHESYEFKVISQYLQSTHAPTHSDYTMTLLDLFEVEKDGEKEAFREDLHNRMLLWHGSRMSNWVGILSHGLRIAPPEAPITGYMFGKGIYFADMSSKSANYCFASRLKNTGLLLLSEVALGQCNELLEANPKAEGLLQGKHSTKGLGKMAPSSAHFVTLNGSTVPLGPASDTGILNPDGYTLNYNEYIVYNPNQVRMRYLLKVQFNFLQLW

[2] = biological target: T2, Poly [ADP-ribose] polymerase 1 (Homo sapiens, UniProt P09874); assay: Inhibition of PARP1 (unknown origin) preincubated with compound for 10 mins followed by DNA and NAD+ addition and measured after 60 mins by chemiluminescence based envision reader analysis
T2 sequence (P09874 whole entry): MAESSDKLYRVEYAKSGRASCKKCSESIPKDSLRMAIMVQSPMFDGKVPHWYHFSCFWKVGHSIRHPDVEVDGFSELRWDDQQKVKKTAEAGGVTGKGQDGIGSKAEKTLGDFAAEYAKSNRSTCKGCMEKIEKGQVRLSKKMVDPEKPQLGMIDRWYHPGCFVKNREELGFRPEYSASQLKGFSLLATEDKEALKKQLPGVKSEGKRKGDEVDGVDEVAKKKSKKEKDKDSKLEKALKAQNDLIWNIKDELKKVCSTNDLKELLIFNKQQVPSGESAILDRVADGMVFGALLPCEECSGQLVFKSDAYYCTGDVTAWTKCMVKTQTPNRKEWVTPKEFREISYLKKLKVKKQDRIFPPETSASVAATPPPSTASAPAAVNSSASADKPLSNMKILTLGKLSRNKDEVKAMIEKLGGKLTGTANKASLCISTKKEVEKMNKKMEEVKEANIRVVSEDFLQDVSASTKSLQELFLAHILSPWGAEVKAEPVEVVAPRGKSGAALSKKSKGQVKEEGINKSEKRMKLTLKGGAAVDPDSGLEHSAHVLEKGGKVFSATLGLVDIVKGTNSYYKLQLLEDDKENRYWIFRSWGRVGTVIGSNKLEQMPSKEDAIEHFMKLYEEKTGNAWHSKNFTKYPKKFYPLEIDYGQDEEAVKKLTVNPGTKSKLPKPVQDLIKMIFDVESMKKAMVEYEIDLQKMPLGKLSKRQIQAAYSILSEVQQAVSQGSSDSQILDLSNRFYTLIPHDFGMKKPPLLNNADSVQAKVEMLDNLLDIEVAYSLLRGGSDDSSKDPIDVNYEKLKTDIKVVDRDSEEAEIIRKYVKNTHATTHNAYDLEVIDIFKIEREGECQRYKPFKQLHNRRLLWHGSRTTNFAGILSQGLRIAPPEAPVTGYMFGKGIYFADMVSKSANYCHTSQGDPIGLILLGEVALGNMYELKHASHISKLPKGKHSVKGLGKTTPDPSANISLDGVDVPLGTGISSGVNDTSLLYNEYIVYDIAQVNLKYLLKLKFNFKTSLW

[3] = biological target: T1, Poly [ADP-ribose] polymerase 2; assay: Inhibition of PARP2 (unknown origin) preincubated with compound for 10 mins followed by DNA and NAD+ addition and measured after 60 mins by chemiluminescence based envision reader analysis
[4] = biological target: T2, Poly [ADP-ribose] polymerase 1; assay: Inhibition of PARP1 (unknown origin) at 1 nM preincubated with compound for 10 mins followed by DNA and NAD+ addition and measured after 60 mins by chemiluminescence based envision reader analysis relative to control; conditions: time 70.0 min
MDA-MB-436 [5] = assay: Antiproliferative activity against human MDA-MB-436 cells assessed as reduction in cell viability incubated for 7 days by CCK-8 assay; type: functional, cell-based; conditions: MDA-MB-436, 168 h
[6] = Sub-acute toxicity in Kunming mouse assessed as change LDH2 level at 30 to 100 mg/kg administered via gavage once a day for 14 days; type: organism-based; conditions: in vivo, po, 336 h, dose 30-100 mg/kg, time 14 day
[7] = Acute toxicity in Kunming mouse assessed as change in heart structure at 300 mg/kg administered via gavage for 14 days by H and E staining based analysis; type: organism-based; conditions: in vivo, po, 336 h, time 14 day
MDA-MB-436 [8] = assay: Antitumor activity against human MDA-MB-436 cells xenografted in female NOD/SCID mouse assessed as tumor regression rate at 1 mg/kg, po administered once every other day for 28 days relative to control; type: functional; conditions: time 28.0 day
[9] = Sub-acute toxicity in Kunming mouse assessed as change CREA2 level at 30 to 100 mg/kg administered via gavage once a day for 14 days; type: organism-based; conditions: in vivo, po, 336 h, dose 30-100 mg/kg, time 14 day
[10] = Acute toxicity in Kunming mouse assessed as change in cellular morphology of lung at 100 mg/kg administered once a day via gavage for 14 days by H and E staining based analysis; type: organism-based; conditions: in vivo, po, 336 h, time 14 day
[11] = Acute toxicity in Kunming mouse assessed as change in cellular morphology of kidney at 100 mg/kg administered once a day via gavage for 14 days by H and E staining based analysis; type: organism-based; conditions: in vivo, po, 336 h, time 14 day
[12] = Sub-acute toxicity in Kunming mouse assessed as change ALTL level at 30 to 100 mg/kg administered via gavage once a day for 14 days; type: organism-based; conditions: in vivo, po, 336 h, dose 30-100 mg/kg, time 14 day
[13] = Sub-acute toxicity in Kunming mouse assessed as change ASTL level at 30 to 100 mg/kg administered via gavage once a day for 14 days; type: organism-based; conditions: in vivo, po, 336 h, dose 30-100 mg/kg, time 14 day
[14] = Clearance in male Balb/c mouse at 1 mg/kg, iv measured upto 96 hrs by LC-MS/MS analysis; type: ADME, organism-based; conditions: male, Balb/c, in vivo
[15] = Apparent volume of distribution in male Balb/c mouse at 1 mg/kg, iv measured upto 96 hrs by LC-MS/MS analysis; type: ADME, organism-based; conditions: male, Balb/c, in vivo, read-out: Vz
[16] = Apparent volume of distribution in male Balb/c mouse at 1 mg/kg, po measured upto 96 hrs by LC-MS/MS analysis; type: ADME, organism-based; conditions: in vivo
MDA-MB-436 [17] = assay: Antitumor activity against luciferase tagged human MDA-MB-436 cells xenografted in female NOD-SCID mouse assessed as median survival time at 3 mg/kg, po administered once a day for 34 days; type: functional; conditions: time 34 day
[18] = Sub-acute toxicity in Kunming mouse assessed as change UREAL level at 100 to 300 mg/kg administered via gavage for 14 days; type: organism-based; conditions: in vivo, po, 336 h, dose 100-300 mg/kg, time 14 day
[19] = Cmax in male Balb/c mouse at 1 mg/kg, po measured upto 96 hrs by LC-MS/MS analysis; type: ADME, organism-based; conditions: in vivo
[20] = Sub-acute toxicity in Kunming mouse assessed as change ASTL level at 100 to 300 mg/kg administered via gavage for 14 days; type: organism-based; conditions: in vivo, po, 336 h, dose 100-300 mg/kg, time 14 day
[21] = Clearance in male Balb/c mouse at 1 mg/kg, po measured upto 96 hrs by LC-MS/MS analysis; type: ADME, organism-based; conditions: male, Balb/c, in vivo
[22] = Cmax in male Balb/c mouse at 1 mg/kg, iv measured upto 96 hrs by LC-MS/MS analysis; type: ADME, organism-based; conditions: in vivo
[23] = Acute toxicity in Kunming mouse assessed as change in kidney structure at 300 mg/kg administered via gavage for 14 days by H and E staining based analysis; type: organism-based; conditions: in vivo, po, 336 h, time 14 day
[24] = AUC(0 to t) in male Balb/c mouse at 1 mg/kg, iv measured upto 96 hrs by LC-MS/MS analysis; type: ADME, organism-based; conditions: male, Balb/c, in vivo
[25] = Acute toxicity in Kunming mouse assessed as change in cellular morphology of spleen at 100 mg/kg administered once a day via gavage for 14 days by H and E staining based analysis; type: organism-based; conditions: in vivo, po, 336 h, time 14 day
[26] = Sub-acute toxicity in Kunming mouse assessed as change ALTL level at 100 to 300 mg/kg administered via gavage for 14 days; type: organism-based; conditions: in vivo, po, 336 h, dose 100-300 mg/kg, time 14 day
[27] = Acute toxicity in Kunming mouse assessed as change in cellular morphology of heart at 100 mg/kg administered once a day via gavage for 14 days by H and E staining based analysis; type: organism-based; conditions: in vivo, po, 336 h, time 14 day
[28] = Oral bioavailability in male Balb/c mouse at 1 mg/kg measured upto 96 hrs by LC-MS/MS analysis; type: ADME, organism-based; conditions: in vivo
[29] = Tmax in male Balb/c mouse at 1 mg/kg, po measured upto 96 hrs by LC-MS/MS analysis; type: ADME, organism-based; conditions: in vivo
[30] = Acute toxicity in Kunming mouse assessed as change in spleen structure at 300 mg/kg administered via gavage for 14 days by H and E staining based analysis; type: organism-based; conditions: in vivo, po, 336 h, time 14 day
[31] = Drug concentration in blood of male Balb/c mouse at 10 mg/kg, po measured at 6 hr postdose; type: ADME, organism-based; conditions: read-out: Ct
[32] = Sub-acute toxicity in Kunming mouse assessed as change ALB2 level at 30 to 100 mg/kg administered via gavage once a day for 14 days; type: organism-based; conditions: in vivo, po, 336 h, dose 30-100 mg/kg, time 14 day
[33] = Sub-acute toxicity in Kunming mouse assessed as change CK level at 100 to 300 mg/kg administered via gavage for 14 days; type: organism-based; conditions: in vivo, po, 336 h, dose 100-300 mg/kg, time 14 day
[34] = Half life in male Balb/c mouse at 1 mg/kg, iv measured upto 96 hrs by LC-MS/MS analysis; type: ADME, organism-based; conditions: male, Balb/c, in vivo
[35] = Half life in male Balb/c mouse at 1 mg/kg, po measured upto 96 hrs by LC-MS/MS analysis; type: ADME, organism-based; conditions: male, Balb/c, in vivo
[36] = Acute toxicity in Kunming mouse assessed as change in lung structure at 300 mg/kg administered via gavage for 14 days by H and E staining based analysis; type: organism-based; conditions: in vivo, po, 336 h, time 14 day
[37] = Acute toxicity in Kunming mouse assessed as change in cellular morphology of liver at 100 mg/kg administered once a day via gavage for 14 days by H and E staining based analysis; type: organism-based; conditions: in vivo, po, 336 h, time 14 day
[38] = AUC(0 to t) in male Balb/c mouse at 1 mg/kg, po measured upto 96 hrs by LC-MS/MS analysis; type: ADME, organism-based; conditions: male, Balb/c, in vivo
[39] = Sub-acute toxicity in Kunming mouse assessed as change LDH2 level at 100 to 300 mg/kg administered via gavage for 14 days; type: organism-based; conditions: in vivo, po, 336 h, dose 100-300 mg/kg, time 14 day
[40] = Sub-acute toxicity in Kunming mouse assessed as change UREAL level at 30 to 100 mg/kg administered via gavage once a day for 14 days; type: organism-based; conditions: in vivo, po, 336 h, dose 30-100 mg/kg, time 14 day
[41] = Sub-acute toxicity in Kunming mouse assessed as change CREA2 level at 100 to 300 mg/kg administered via gavage for 14 days; type: organism-based; conditions: in vivo, po, 336 h, dose 100-300 mg/kg, time 14 day
[42] = Acute toxicity in Kunming mouse assessed as change in liver structure at 300 mg/kg administered via gavage for 14 days by H and E staining based analysis; type: organism-based; conditions: in vivo, po, 336 h, time 14 day
[43] = Drug concentration in brain of male Balb/c mouse at 10 mg/kg, po measured at 1 hr postdose; type: ADME, organism-based; conditions: read-out: Ct
[44] = Sub-acute toxicity in Kunming mouse assessed as change ALB2 level at 100 to 300 mg/kg administered via gavage for 14 days; type: organism-based; conditions: in vivo, po, 336 h, dose 100-300 mg/kg, time 14 day
[45] = Drug concentration in blood of male Balb/c mouse at 10 mg/kg, po measured at 1 hr postdose; type: ADME, organism-based; conditions: read-out: Ct
[46] = Sub-acute toxicity in Kunming mouse assessed as change CK level at 30 to 100 mg/kg administered via gavage once a day for 14 days; type: organism-based; conditions: in vivo, po, 336 h, dose 30-100 mg/kg, time 14 day
[47] = Tmax in male Balb/c mouse at 1 mg/kg, iv measured upto 96 hrs by LC-MS/MS analysis; type: ADME, organism-based; conditions: in vivo
[48] = Drug concentration in brain of male Balb/c mouse at 10 mg/kg, po measured at 6 hr postdose; type: ADME, organism-based; conditions: read-out: Ct

Compound: CCc1cc2ncc(CN3CC=C(c4ccc(C#N)cc4F)CC3)cc2[nH]c1=O
inhibition [1]: 92.3%
IC50 [2]: 0.17 nM
IC50 [3]: 62 nM
inhibition [4]: 96.9%
IC50 (MDA-MB-436 [5]): 5.3 nM

Compound: CNC(=O)c1ccc(N2CCN(Cc3ccc4nc(C)c(=O)[nH]c4c3F)CC2)c(F)n1 [AZD-9574]
Activity [6]: Non-toxic
Activity [7]: Non-toxic
Activity (MDA-MB-436 [8]): inactive
inhibition [1]: 38.1%
Activity [9]: Non-toxic
Activity [10]: Non-toxic
Activity [11]: Non-toxic
Activity [12]: Non-toxic
Activity [13]: Non-toxic
clearance [14]: 3.17 mL/min/kg
Vd [15]: 3.64 L/kg
Vz [16]: 3.03 L/kg
inhibition [4]: 63.7%
IC50 (MDA-MB-436 [5]): 6.7 nM
Survival (MDA-MB-436 [17]): >65 days
Activity [18]: Non-toxic
Cmax [19]: 594 ng/mL
Activity [20]: Non-toxic
CL/F [21]: 4 mL/min/kg
Cmax [22]: 941 ng/mL
Activity [23]: Non-toxic
AUC(0-t) at 96 h [24]: 4890 ng·h/mL
Activity [25]: Non-toxic
Activity [26]: Non-toxic
Activity [27]: Non-toxic
bioavailability [28]: 85.5%
Tmax [29]: 0.33 h
Activity [30]: Non-toxic
concentration at 6 h [31]: 186 ng/mL
Activity [32]: Non-toxic
Activity [33]: Non-toxic
half-life [34]: 14.7 h
half-life [35]: 8.81 h
Activity [36]: Non-toxic
Activity [37]: Non-toxic
AUC(0-t) at 96 h [38]: 4180 ng·h/mL
Activity [39]: Non-toxic
Activity [40]: Non-toxic
Activity [41]: Non-toxic
Activity [42]: Non-toxic
concentration at 1 h [43]: 412 ng/g
Activity [44]: Non-toxic
concentration at 1 h [45]: 3780 ng/mL
Activity [46]: Non-toxic
Tmax [47]: 4.8 min
concentration at 6 h [48]: 48 ng/g

Compound: CCc1cc2ncc(CN3CC=C(c4cc(F)c(C#N)cn4)CC3)cc2[nH]c1=O
inhibition [1]: 87.4%
IC50 [2]: 0.28 nM
IC50 [3]: 130 nM
inhibition [4]: 88.6%
IC50 (MDA-MB-436 [5]): 2.8 nM
Cmax [19]: 3020 ng/mL
CL/F [21]: 1 mL/min/kg
half-life [35]: 5.26 h
AUC(0-t) at 96 h [38]: 16400 ng·h/mL

inhibition [1]: 98.3%
IC50 [2]: 0.32 nM
IC50 [3]: 19 nM
inhibition [4]: 75%
IC50 (MDA-MB-436 [5]): 114 nM
Compound: CNC(=O)c1ccc(N2CCN(Cc3cnc4cc(C)c(=O)[nH]c4c3)CC2)c(F)n1

Compound: CCc1cc2ncc(CN3CC=C(c4ccc(F)cn4)CC3)cc2[nH]c1=O
inhibition [1]: 93.9%
IC50 [2]: 0.28 nM
IC50 [3]: 65 nM
inhibition [4]: 91.4%
IC50 (MDA-MB-436 [5]): 6.5 nM
